# According to US8691256B2, “Pest control compositions and methods” (Tyratech, Inc., priority 2008, dated 2014):
# Where two headings read alike, the source gives them in different places.
# Experiments:
# tyramine receptor (TyrR) = target: T1, tyramine receptor (TyrR) (Drosophila melanogaster, UniProt P22270); assay: 3H-tyramine saturation and inhibition binding to membranes of Schneider cells expressing tyramine receptor; conditions: for efficiency at displacing ^3H-tyramine binding: compared with tyramine
# T1 construct: oligonucleotides that are used to amplify the open reading frame of the Drosophila tyramine receptor (TyrR); expressed in transfected cells; whole cells or crude membrane fractions
# T1 sequence (P22270 27-601): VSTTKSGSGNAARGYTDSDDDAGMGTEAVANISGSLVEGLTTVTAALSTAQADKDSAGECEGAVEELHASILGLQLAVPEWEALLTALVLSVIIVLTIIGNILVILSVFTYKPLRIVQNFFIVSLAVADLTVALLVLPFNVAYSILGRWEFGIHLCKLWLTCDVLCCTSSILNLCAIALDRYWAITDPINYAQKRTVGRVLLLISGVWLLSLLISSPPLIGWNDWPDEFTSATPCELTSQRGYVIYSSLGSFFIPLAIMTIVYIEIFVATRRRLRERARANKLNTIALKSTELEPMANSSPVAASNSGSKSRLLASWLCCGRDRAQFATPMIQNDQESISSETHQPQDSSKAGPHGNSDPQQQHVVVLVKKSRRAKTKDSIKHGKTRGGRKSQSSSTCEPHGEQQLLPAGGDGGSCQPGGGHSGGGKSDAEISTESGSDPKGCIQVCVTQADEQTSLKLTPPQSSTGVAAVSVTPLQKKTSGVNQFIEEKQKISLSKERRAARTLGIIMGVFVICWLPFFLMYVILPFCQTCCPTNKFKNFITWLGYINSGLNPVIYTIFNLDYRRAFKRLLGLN
# Drosphila melanogaster = assay: Toxicity against Drosphila melanogaster by direct spray onto flies; format: in vivo, Drosophila melanogaster; conditions: 30 flies per composition, Fipronil 20 ppm, Blend 19 0.5 μg/fly, combination 0.5 μg Blend 19 + 20 ppm fipronil
# Method: With reference to Table 14, the pesticidal effect against drosphila melanogaster was determined for Blend 19 and the composition including fipnoril and Blend 19. The composition of Blend 19 is also exemplified in Ingredient Family 15 of Table 6. Each composition was tested on 30 drosphila melanogaster by spraying directly onto the flies. Treatment with acetone as control at 0.5 μl/fly killed 2 flies, fipnoril alone at 20 ppm killed 12 flies, and Blend 19 alone at 0.5 μg/fly killed 10 flies. However, treatment with fipronil at 20 ppm combined with Blend 19 at 0.5 μg/fly killed all of the 30 flies.
# tyramine receptor = target: T2, tyramine receptor (Drosophila melanogaster, UniProt P22270); assay: Whole cell 3H-tyramine binding/uptake in transfected Schneider cells
# T2 construct: oligonucleotides that are used to amplify the open reading frame of the Drosophila tyramine receptor (TyrR); expressed in transfected cells; whole cells or crude membrane fractions
# T2 sequence (P22270 27-601): T1 sequence (P22270 27-601)
# Text: For transfection, Drosophila Schneider cells are stably transfected with pAc5(B)-TyrR ORF using the calcium phosphate-DNA coprecipitation protocol as described by Invitrogen Drosophila Expression System (DES) manual. The precipitation protocol is the same for either transient or stable transfection except for the use of an antibiotic resistant plasmid for stable transfection. At least about ten clones of stably transfected cells are selected and separately propagated. Stable clones expressing the receptors are selected by whole cell binding/uptake using ^3H-tyramine. […] Nonspecific binding is determined by including about 50 μM unlabeled-tyramine in the reaction. Binding is quantified counting radioactivity using a using a Liquid Scintillation β-counter (Beckman, Model LS1801). […]
# Cells transfected with the tyramine receptor (about 1×10^6 cells/ml) are cultured in each well of a multi-well plate. […] Solubilized cells are transferred into about 4 ml Liquid Scintillation Solution (LSS) and vigorously vortexed for about 30 sec before counting the radioactivity using a Liquid Scintillation β-counter (Beckman, Model LS1801) (LSC).
# Receptor specific binding data is expressed as fmol specific binding per 1×10^6 cells and measured as a function of ^3H-tyramine concentration. […]
# [1] = tested on: Blattella germanica (German cockroaches); assay: Pesticidal effect against German cockroaches (knock down and 100% kill time); format: in vivo
# Method: With reference to Table 9, the pesticidal effect against Blattella germanica (German cockroaches) was determined for DM, Blend 12 (exemplified in Ingredient Family 9 of Table 6), and the composition including deltamethrin (DM) and Blend 12.
# Similarly, with reference to Table 10, the pesticidal effect against German cockroaches was determined for deltamethrin (DM), Blend 7 (exemplified in Ingredient Family 5 of Table 6), and the composition including DM and Blend 7.
# Periplaneta americana = assay: Pesticidal effect (mortality) against Periplaneta americana; format: in vivo; conditions: 30 minutes post-treatment, Blend 19 5%
# Method: With reference to FIG. 6A, the pesticidal effect against Periplaneta americana was determined for Blend 19 (labeled “HL1”, exemplified in Ingredient Family 15 in Table 6) and the composition including clothianidin (CL) and Blend 19.
# With reference to FIG. 6B, the pesticidal effect against Periplaneta americana was determined for Blend 19 (labeled “HL1”) and the composition including Imidacloprid and Blend 19.
# adult green peach aphids = assay: Greenhouse spray test against adult green peach aphids; format: in vivo; conditions: imidacloprid in water at 100 ppm; three days after spraying
# Text: Adult green peach aphids were observed and counted on the plants in a greenhouse. Then different compositions were sprayed directly onto the plants with aphids. Three days after the composition was applied, aphids were counted again to evaluate the pesticidal effects of the composition.
# Drosophila sp. = assay: Pesticidal effect (KD) against Drosophila sp.; format: in vivo; conditions: 30 seconds post-treatment; Imidacloprid 50 ppm; Blend 19 2.5%; combination 50 ppm + 2.5% (FIG. 4D)
# Method: Similarly, with reference to FIG. 4D, the pesticidal effect against Drosophila sp. was determined for Blend 19 (labeled “HL1”) and the composition including Imidacloprid and Blend 19.
# thrips = assay: Knockdown and mortality of thrips; format: in vivo
# Method: Thrips were exposed to three different groups of compositions. Both knockdown (KD) and mortality were measured at indicated time intervals. Knockdown of target pests is measured in a plexilglass chamber at indicated intervals. Mortality of target pests is measured in cylindrical polyethylene containers with 10% sucrose pads. The mortality value is based on a combination of dead and moribund pests over the total number of pests initially released.
# Thrips were exposed to three different groups of compositions. […] The composition of Blend 8 is exemplified in Ingredient Family 21 in Table 6.
# Thrips were exposed to three different groups of compositions. […] Blend 38 (label “B5049” and “TT 1A”) is exemplified in Ingredient Family 12 in Table 6.
# Aedes aegypti = assay: Pesticidal effect (KD) against Aedes aegypti; format: in vivo
# Method: With reference to FIG. 4A, the pesticidal effect against Aedes aegypti was determined for Blend 19 (labeled “HL1”, exemplified in Ingredient Family 15 in Table 6) and the composition including clothianidin (CL) and Blend 19.
# Similarly, with reference to FIG. 4B, the pesticidal effect against Aedes aegypti was determined for Blend 19 (labeled “HL1”) and the composition including CL and Blend 19.
# Similarly, with reference to FIG. 4C, the pesticidal effect against Aedes aegypti was determined for Blend 19 (labeled “HL1”) and the composition including Imidacloprid and Blend 19.
# With reference to FIG. 5, the pesticidal effect against Aedes aegypti was determined for Blend 11 (labeled “B5028”, exemplified in Ingredient Family 2 in Table 6) and the composition including Imidacloprid (labeled “I”) and B5028.
# [2] = saturation binding to membranes of Schneider cells expressing tyramine receptor
# [3] = Thrips, 24 h, read-out: mortality of the thrips
# [4] = imidacloprid alone at 1 ppm, till the end of the experiment at 24 hours post treatment
# [5] = imidacloprid alone at 10 ppm, till the end of the experiment at 24 hours post treatment
smiles,measurement,setting,value
NCC(O)c1ccc(O)cc1 (centres unmarked) [Octopamine],rank order of potency (Ki and EC50),tyramine receptor (TyrR),tyramine>octopamine>dopamine>serotonin
same,efficiency at displacing ^3H-tyramine binding,tyramine receptor (TyrR),less efficient than tyramine
N#Cc1nn(-c2c(Cl)cc(C(F)(F)F)cc2Cl)c(N)c1[S+]([O-])C(F)(F)F (centres unmarked) [Fipronil],# of Flies Killed,Drosphila melanogaster,12/30
same,# of Flies Killed,Drosphila melanogaster; listed as fipnoril,12
"NCCc1ccc(O)c(O)c1 [dopamine, Dopamine]",rank order of potency (Ki and EC50),tyramine receptor (TyrR),tyramine>octopamine>dopamine>serotonin
same,efficiency at displacing ^3H-tyramine binding,tyramine receptor (TyrR),less efficient than tyramine
NCCc1ccc(O)cc1 [^3H-tyramine],Bmax,tyramine receptor (TyrR); [2],about 0.679 pmol/mg protein
same,Kd,tyramine receptor (TyrR); [2],~1.26 nM
same,^3H-tyramine concentration at which maximum specific binding occurs,tyramine receptor; whole transfected cells,about 5 nM
"CC1(C)[C@H](C(=O)O[C@H](C#N)c2cccc(Oc3ccccc3)c2)[C@@H]1C=C(Br)Br [DM, deltamethrin]",100% Kill,"[1]; Table 9: DM 0.037 mg/cm^2, Blend 12 1.9 mg/cm^2",15 min
same,100% Kill,[1]; Table 10: DM 0.037 mg/cm^2,12 min
O=[N+]([O-])NC1=NCCN1Cc1ccc(Cl)nc1 [Imidacloprid],mortality of the target insect,"Periplaneta americana; Imidacloprid alone at 0.05%, 0.033% and 0.01%, combination Imidacloprid 0.033% + 5% Blend 19 (FIG. 6B)",no mortality
same,change in aphid numbers,adult green peach aphids,No changes in aphid numbers
same,KD of the target insect,Drosophila sp.,0%
same,mortality at 100 ppm,"thrips; Thrips, 2 h, read-out: mortality of the thrips",10%
same,mortality at 100 ppm,"thrips; Thrips, 4 h, read-out: mortality of the thrips",20%
same,mortality at 50 ppm,thrips; [3],50%
same,mortality at 100 ppm,thrips; [3],40%
same,KD of the thrips,thrips; [4],no KD
same,mortality of the thrips,thrips; [4],no mortality
same,KD of the thrips,thrips; [5],no KD
same,mortality of the thrips,thrips; [5],no mortality
same,KD of the thrips,"thrips; imidacloprid alone at 20 ppm, 24 hours post treatment",12%
same,mortality of the thrips,"thrips; imidacloprid alone at 20 ppm, till the end of the experiment at 24 hours post treatment",no mortality
same,KD of the thrips,"thrips; imidacloprid alone at 50 ppm, 24 hours post treatment",100%
same,KD of the thrips,"thrips; imidacloprid alone at 100 ppm, 2 hours post treatment",10%
same,KD of the thrips,"thrips; imidacloprid alone at 100 ppm, 4 hours post treatment",20%
same,KD of the thrips,"thrips; imidacloprid alone at 100 ppm, 24 hours post treatment",80%
same,KD of the target insect,"Aedes aegypti; 30 seconds post-treatment, Imidacloprid 250 ppm, Blend 19 2.5%, combination 250 ppm + 2.5% (FIG. 4C)",20%
same,KD of the target insect,"Aedes aegypti; Imidacloprid 500 ppm, B5028 5%, combination 500 ppm + 5% (FIG. 5)",no KD
"CN/C(=N\[N+](=O)[O-])NCc1cnc(Cl)s1 [CL, clothianidin]",mortality of the target insect,"Periplaneta americana; CL 0.05%, combination 0.05% + 5% (FIG. 6A)",no mortality
same,KD of the target insect,Aedes aegypti; CL alone at 250 ppm (FIG. 4B),no KD
same,KD of the target insect,Aedes aegypti; CL alone at 500 ppm (FIG. 4A),no KD
"NCCc1ccc(O)cc1 [Tyramine (TA), Tyramine]",rank order of potency (Ki and EC50),tyramine receptor (TyrR),tyramine>octopamine>dopamine>serotonin
same,response of untransfected cells,tyramine receptor; concentrations as high as about 100 μM,do not respond
